# Results taken from patent US6740642B2, “Macrolides with antibacterial activity” (BAsilea Parmaceutica AG, priority 2000, dated 2004).
# Assays:
# Experiment in all cases: MIC, standard microdilution
# St. pneumoniae 12288 = type: cell-based, Streptococcus pneumoniae; details: for MIC: Streptococcus pneumoniae, read-out: minimum inhibitory concentration (MIC)
# Description: (§1) The antibacterial activities of the compounds have been determined by standard microdilution technique (National Committee for Clinical Laboratory Standards. 1997. Methods for dilution antimicrobial susceptibility tests for bacteria that grow aerobically, 4th edition. Approved standard M7-A4. National Committee for Clinical Laboratory Standards, Wayne, Pa.).
# St. pneumoniae SL199T = type: cell-based, Streptococcus pneumoniae; details: for MIC: Streptococcus pneumoniae, read-out: minimum inhibitory concentration (MIC)
# Description: as §1
# St. pneumoniae 1/4 = type: cell-based, Streptococcus pneumoniae; details: for MIC: Streptococcus pneumoniae, read-out: minimum inhibitory concentration (MIC)
# Description: as §1
# St. pneumoniae 1/1 = type: cell-based, Streptococcus pneumoniae; details: for MIC: Streptococcus pneumoniae, read-out: minimum inhibitory concentration (MIC)
# Description: as §1
# S. aureus ATCC29213 = type: cell-based, Staphylococcus aureus; details: for MIC: Staphylococcus aureus, read-out: minimum inhibitory concentration (MIC)
# Description: as §1
# S. aureus 745 = type: cell-based, Staphylococcus aureus; details: for MIC: Staphylococcus aureus, read-out: minimum inhibitory concentration (MIC)
# Description: as §1
# S. aureus 1086 = type: cell-based, Staphylococcus aureus; details: for MIC: Staphylococcus aureus, read-out: minimum inhibitory concentration (MIC)
# Description: as §1
# [1] = system: P. aeruginosa ATCC27853 (+Ery. 32 μg/ml); type: cell-based
# Description: as §1
# E. coli ATCC25922 = type: cell-based; details: for MIC: Escherichia coli, read-out: minimum inhibitory concentration (MIC)
# Description: as §1
SMILES,MIC (St. pneumoniae 12288) [µg/mL],MIC (St. pneumoniae SL199T) [µg/mL],MIC (St. pneumoniae 1/4) [µg/mL],MIC (St. pneumoniae 1/1) [µg/mL],MIC (S. aureus ATCC29213) [µg/mL],MIC (S. aureus 745) [µg/mL],MIC (S. aureus 1086) [µg/mL],minimum inhibitory concentration (MIC) [1] [µg/mL],MIC (E. coli ATCC25922) [µg/mL],minimum inhibitory concentration (MIC) (St. pneumoniae 12288) [µg/mL],minimum inhibitory concentration (MIC) (St. pneumoniae SL199T) [µg/mL],minimum inhibitory concentration (MIC) (St. pneumoniae 1/4),minimum inhibitory concentration (MIC) (St. pneumoniae 1/1),minimum inhibitory concentration (MIC) (S. aureus ATCC29213) [µg/mL],minimum inhibitory concentration (MIC) (S. aureus 745) [µg/mL],minimum inhibitory concentration (MIC) (S. aureus 1086) [µg/mL],minimum inhibitory concentration (MIC) (E. coli ATCC25922) [µg/mL]
"CC[C@H]1OC(=O)[C@H](C)C(=O)[C@H](C)[C@@H](O[C@@H]2O[C@H](C)C[C@H](N(C)C)[C@H]2O)[C@](C)(OC)C[C@@H](C)C(=O)[C@H](C)[C@H]2[C@H](SCCn3ccc(-c4cccnc4)n3)C(=O)O[C@@]21C [Compound I-16, (3S,3aR,4R,6R,8R,9R,10R,12R,15R,15aS)-15-Ethyloctahydro-8-methoxy-4,6,8,10,12,15a-hexamethyl-3-[[2-[3-(3-pyridinyl)-1H-pyrazol-1-yl]-ethyl]thio]-9-[[3,4,6-trideoxy-3-(dimethylamino)-β-D-xylo-hexopyranosyl]oxy]-2H-furo[2,3-c]oxacyclotetradecin-2,5,11,13(3H,6H,12H)-tetrone]",0.5,0.5,≤ 0.12,≤ 0.12,≤ 0.12,> 16,≤ 0.12,>16,> 16,–,–,–,–,–,–,–,–
"CC[C@H]1OC(=O)[C@H](C)C(=O)[C@H](C)[C@@H](O[C@@H]2O[C@H](C)C[C@H](N(C)C)[C@H]2O)[C@](C)(OC)C[C@@H](C)C(=O)[C@H](C)[C@H]2[C@H](SCCCc3ccccn3)C(=O)O[C@@]21C [Compound I-10, (3S,3aR,4R,6R,8R,9R,10R,12R,15R,15aS)-15-Ethyloctahydro-8-methoxy-4,6,8,10,12,15a-hexamethyl-3-[[3-(2-pyridinyl)propyl]thio]-9-[[3,4,6-trideoxy-3-(dimethylamino)-β-D-xylo-hexopyranosyl]oxy]-2H-furo[2,3-c]oxacyclotetradecin-2,5,11,13(3H,6H,12H)-tetrone]",8,2,0.25,≤ 0.12,≤ 0.12,> 16,≤ 0.12,>16,> 16,–,–,–,–,–,–,–,–
"CC[C@H]1OC(=O)[C@H](C)C(=O)[C@H](C)[C@@H](O[C@@H]2O[C@H](C)C[C@H](N(C)C)[C@H]2O)[C@](C)(OC)C[C@@H](C)C(=O)[C@H](C)[C@H]2[C@H](SCCc3ccccc3)C(=O)O[C@@]21C [Compound I-1, (3S,3aR,4R,6R,8R,9R,10R,12R,15R,15aS)-15-Ethyloctahydro-8-methoxy-4,6,8,10,12,15a-hexamethyl-3-[[2-phenylethyl]thio]-9-[[3,4,6-trideoxy-3-(dimethylamino)-β-D-xylo-hexopyranosyl]oxy]-2H-furo[2,3-c]oxacyclotetradecin-2,5,11,13(3H,6H,12H)-tetrone]",32,4,1,≤ 0.5,≤ 0.25,> 16,≤ 0.25,>16,> 16,–,–,–,–,–,–,–,–
"CC[C@H]1OC(=O)[C@H](C)C(=O)[C@H](C)[C@@H](O[C@@H]2O[C@H](C)C[C@H](N(C)C)[C@H]2O)[C@](C)(OC)C[C@@H](C)C(=O)[C@H](C)[C@H]2[C@H](S(=O)(=O)CCCc3ccccc3)C(=O)O[C@@]21C [Compound I-24, (3S,3aR,4R,6R,8R,9R,10R,12R,15R,15aS)-15-Ethyloctahydro-8-methoxy-4,6,8,10,12,15a-hexamethyl-3-[(3-phenylpropyl)sulfonyl]-9-[[3,4,6-trideoxy-3-(dimethylamino)-β-D-xylo-hexopyranosyl]oxy]-2H-furo[2,3-c]oxacyclotetradecin-2,5,11,13(3H,6H,12H)-tetrone]",16,16,1,≤ 0.5,1,> 16,1,>16,> 16,–,–,–,–,–,–,–,–
"CC[C@H]1OC(=O)[C@H](C)C(=O)[C@H](C)[C@@H](O[C@@H]2O[C@H](C)C[C@H](N(C)C)[C@H]2O)[C@](C)(OC)C[C@@H](C)C(=O)[C@H](C)[C@H]2[C@H](SCCn3cnc4c(N(C)C)ncnc43)C(=O)O[C@@]21C [Compound I-27, (3S,3aR,4R,6R,8R,9R,10R,12R,15R,15aS)-3-[[2-[6-N,N-Dimethylamino-9H-purine-9-yl]ethyl]thio]-15-ethyloctahydro-8-methoxy-4,6,8,10,12,15a-hexamethyl-9-[[3,4,6-trideoxy-3-(dimethylamino)-β-D-xylo-hexopyranosyl]oxy]-2H-furo[2,3-c]oxacyclotetradecin-2,5,11,13(3H,6H,12H)-tetrone]",–,–,–,–,–,–,–,>16,–,2,1,<=0.25 μg/ml,<=0.25 μg/ml,0.25,>16,1,>16
"CC[C@H]1OC(=O)[C@H](C)C(=O)[C@H](C)[C@@H](O[C@@H]2O[C@H](C)C[C@H](N(C)C)[C@H]2O)[C@](C)(OC)C[C@@H](C)C(=O)[C@H](C)[C@H]2[C@H](C#N)C(=O)O[C@@]21C [Compound I-23, (3R,3aS,4R,6R,8R,9R,10R,12R,15R,15aS)-15-Ethyltetradecahydro-8-methoxy-4,6,8,10,12,15a-hexamethyl-2,5,11,13-tetraoxo-9-[[3,4,6-trideoxy-3-(dimethylamino)-β-D-xylo-hexopyranosyl]oxy]-2H-furo[2,3-c]oxacyclotetradecin-3-carbonitrile]",> 32,32,8,≤ 0.5,≤ 0.25,> 16,≤ 0.25,>16,> 16,–,–,–,–,–,–,–,–
"CC[C@H]1OC(=O)[C@H](C)C(=O)[C@H](C)[C@@H](O[C@@H]2O[C@H](C)C[C@H](N(C)C)[C@H]2O)[C@](C)(OC)C[C@@H](C)C(=O)[C@H](C)[C@H]2[C@H](SCCCn3cnc4c(N)ncnc43)C(=O)O[C@@]21C [Compound I-26, (3S,3aR,4R,6R,8R,9R,10R,12R,15R,15aS)-3-[[3-[6-Amino-9H-purine-9-yl]propyl]thio]-15-ethyloctahydro-8-methoxy-4,6,8,10,12,15a-hexamethyl-9-[[3,4,6-trideoxy-3-(dimethylamino)-β-D-xylo-hexopyranosyl]oxy]-2H-furo[2,3-c]oxacyclotetradecin-2,5,11,13(3H,6H,12H)-tetrone]",0.25,≤ 0.25,≤ 0.25,≤ 0.25,≤ 0.12,> 16,≤ 0.12,>16,16,–,–,–,–,–,–,–,–
"CC[C@H]1OC(=O)[C@H](C)C(=O)[C@H](C)[C@@H](O[C@@H]2O[C@H](C)C[C@H](N(C)C)[C@H]2O)[C@](C)(OC)C[C@@H](C)C(=O)[C@H](C)[C@H]2[C@H](SCCn3cnc(-c4cccnc4)c3)C(=O)O[C@@]21C [Compound I-20, (3S,3aR,4R,6R,8R,9R,10R,12R,15R,15aS)-15-Ethyloctahydro-8-methoxy-4,6,8,10,12,15a-hexamethyl-3-[[2-[4-(3-pyridinyl)-1H-imidazol-1-yl]ethyl]thio]-9-[[3,4,6-trideoxy-3-(dimethylamino)-β-D-xylo-hexopyranosyl]oxy]-2H-furo[2,3-c]oxacyclotetradecin-2,5,11,13(3H,6H,12H)-tetrone]",2,2,≤ 0.12,≤ 0.12,0.25,> 16,0.25,>16,> 16,–,–,–,–,–,–,–,–
"CO[C@@H]1[C@@H](O[C@@H]2O[C@H](C)[C@@H](O[C@H]3C[C@@](C)(O)[C@@H](OC(=O)CC(C)C)[C@H](C)O3)[C@H](N(C)C)[C@H]2O)[C@@H](CC=O)C[C@@H](C)[C@@H](O)/C=C/C=C/C[C@@H](C)OC(=O)C[C@H]1OC(C)=O [Josamycin, reference compound]",> 16,> 16,≤ 4,≤ 0.12,2,> 16,2,>16,> 16,–,–,–,–,–,–,–,–
